Values after ≈ are worked out from the molar mass of the structure shown. Active and inactive are the calls of the source. The rule behind the calls is not given here.
Experiments:
[1] = tested on: Staphylococcus epidermidis; test: Antibacterial activity against Staphylococcus epidermidis ATCC 12228 assessed as bacterial growth inhibition incubated for 24 hrs by CLSI based broth microdilution method; format: functional
Staphylococcus aureus [2] = test: Antibacterial activity against Staphylococcus aureus ATCC 25923 assessed as bacterial growth inhibition incubated for 24 hrs by CLSI based broth microdilution method; format: functional
Staphylococcus aureus [3] = test: Antibacterial activity against Staphylococcus aureus ATCC 29213 assessed as bacterial growth inhibition incubated for 24 hrs by CLSI based broth microdilution method; format: functional
Staphylococcus aureus [4] = test: Antibacterial activity against methicillin-resistant Staphylococcus aureus ATCC 33591 assessed as bacterial growth inhibition incubated for 24 hrs by CLSI based broth microdilution method; format: functional
Escherichia coli = test: Antibacterial activity against Escherichia coli ATCC 25922 assessed as bacterial growth inhibition incubated for 24 hrs by CLSI based broth microdilution method; format: functional
Acinetobacter baumannii [5] = test: Antibacterial activity against Acinetobacter baumannii ATCC 19606 assessed as bacterial growth inhibition incubated for 24 hrs by CLSI based broth microdilution method; format: functional
Staphylococcus aureus [6] = test: Antibacterial activity against methicillin-resistant Staphylococcus aureus 171 clinical isolate assessed as bacterial growth inhibition incubated for 24 hrs by CLSI based broth microdilution method; format: functional
Staphylococcus aureus [7] = test: Antibacterial activity against methicillin-resistant Staphylococcus aureus 575 clinical isolate assessed as bacterial growth inhibition incubated for 24 hrs by CLSI based broth microdilution method; format: functional
Enterococcus = test: Antibacterial activity against vancomycin-resistant Enterococcus 80 clinical isolate assessed as bacterial growth inhibition incubated for 24 hrs by CLSI based broth microdilution method; format: functional
Pseudomonas aeruginosa = test: Antibacterial activity against multidrug-resistant Pseudomonas aeruginosa 126 clinical isolate assessed as bacterial growth inhibition incubated for 24 hrs by CLSI based broth microdilution method; format: functional
Klebsiella pneumoniae = test: Antibacterial activity against multidrug-resistant Klebsiella pneumoniae 893 clinical isolate assessed as bacterial growth inhibition incubated for 24 hrs by CLSI based broth microdilution method; format: functional
Acinetobacter baumannii [8] = test: Antibacterial activity against carbapenem-resistant Acinetobacter baumannii 882 clinical isolate assessed as bacterial growth inhibition incubated for 24 hrs by CLSI based broth microdilution method; format: functional
[9] = Cytotoxicity against human HepG2 cells incubated for 24 hrs by CCK8 assay; format: toxicity, cell-based
[10] = Cytotoxicity against HEK293 cells incubated for 24 hrs by CCK8 assay; format: toxicity, cell-based; settings: human
[11] = Cytotoxicity against human A549 cells incubated for 24 hrs by CCK8 assay; format: toxicity, cell-based
[12] = tested on: Mesomycoplasma hyopneumoniae; test: Anti-mycoplasma activity against Mycoplasma hyopneumoniae J-NCYC10110 assessed as bacterial growth inhibition incubated for 7 days; format: functional; settings: J-NCYC10110, 168 h, time 7 day
[13] = tested on: Mesomycoplasma hyopneumoniae; test: Anti-mycoplasma activity against Mycoplasma hyopneumoniae LH-NCTC10130 assessed as bacterial growth inhibition incubated for 7 days; format: functional; settings: time 7 day
Mesomycoplasma hyorhinis = test: Anti-mycoplasma activity against Mycoplasma hyorhinis BTS-7-NCTC10130 assessed as bacterial growth inhibition incubated for 7 days; format: functional; settings: BTS-7-NCTC10130, 168 h, time 7 day
[14] = tested on: Mycoplasmoides gallisepticum; test: Anti-mycoplasma activity against Mycoplasma gallisepticum MG-R-NCTC10115 assessed as bacterial growth inhibition incubated for 7 days; format: functional; settings: MG-R-NCTC10115, 168 h, time 7 day
Mycoplasmopsis synoviae = test: Anti-mycoplasma activity against Mycoplasmopsis synoviae MS-MVU1852-NCTC10124 assessed as bacterial growth inhibition incubated for 7 days; format: functional; settings: MS-MVU1852-NCTC10124, 168 h, time 7 day
[15] = Toxicity in neutropenic Kunming mouse model infected with methicillin-resistant Staphylococcus aureus ATCC 33591 assessed as survival rate at 5 mg/kg, ip measured after 7 days relative to control; format: organism-based; settings: in vivo, 168 h, time 7 day
[16] = Toxicity in neutropenic Kunming mouse model infected with methicillin-resistant Staphylococcus aureus ATCC 33591 assessed as survival rate at 10 mg/kg, ip measured after 7 days relative to control; format: organism-based; settings: in vivo, 168 h, time 7 day
[17] = Toxicity in neutropenic Kunming mouse model infected with methicillin-resistant Staphylococcus aureus ATCC 33591 assessed as survival rate at 20 mg/kg, ip measured after 7 days relative to control; format: organism-based; settings: in vivo, 168 h, time 7 day
Staphylococcus aureus [18] = test: Antibacterial activity against methicillin-resistant Staphylococcus aureus ATCC 33591 infected in neutropenic Kunming mouse model administered intraperitoneally measured after 7 days; format: functional; settings: ATCC 33591, 168 h, route ip, time 7 day
Staphylococcus aureus [19] = test: Antibacterial activity against methicillin-resistant Staphylococcus aureus ATCC 33591 infected in neutropenic Kunming mouse model assessed as bacterial load reduction in lung at 10 to 20 mg/kg, ip measured after 2 days; format: functional, organism-based; settings: dose 10-20 mg/kg, time 2.0 day
Staphylococcus aureus [20] = test: Antibacterial activity against methicillin-resistant Staphylococcus aureus ATCC 33591 infected in neutropenic Kunming mouse model assessed as bacterial load reduction in kidney at 10 to 20 mg/kg, ip measured after 2 days; format: functional, organism-based; settings: dose 10-20 mg/kg, time 2.0 day
Staphylococcus aureus [21] = test: Antibacterial activity against methicillin-resistant Staphylococcus aureus ATCC 33591 infected in neutropenic Kunming mouse model assessed as bacterial load reduction in liver at 10 to 20 mg/kg, ip measured after 2 days; format: functional, organism-based; settings: dose 10-20 mg/kg, time 2.0 day
Staphylococcus aureus [22] = test: Antibacterial activity against methicillin-resistant Staphylococcus aureus ATCC 33591 infected in neutropenic Kunming mouse model assessed as reduction in infection-induced inflammatory cell inflammation in lung at 10 mg/kg, ip measured after 7 days; format: functional, organism-based; settings: time 7.0 day
Staphylococcus aureus [23] = test: Antibacterial activity against methicillin-resistant Staphylococcus aureus ATCC 33591 infected in neutropenic Kunming mouse model assessed as reduction in infection-induced inflammatory cell inflammation in kidney at 10 mg/kg, ip measured after 7 days; format: functional, organism-based; settings: time 7.0 day
Staphylococcus aureus [24] = test: Antibacterial activity against methicillin-resistant Staphylococcus aureus ATCC 33591 infected in neutropenic Kunming mouse model assessed as reduction in infection-induced inflammatory cell inflammation in liver at 10 mg/kg, ip measured after 7 days; format: functional, organism-based; settings: time 7.0 day

Structure (SMILES)	MIC [1] [µg/mL]	MIC (Staphylococcus aureus [2]) [µg/mL]	MIC (Staphylococcus aureus [3]) [µg/mL]	MIC (Staphylococcus aureus [4]) [µg/mL]	MIC (Escherichia coli) [µg/mL]	MIC (Acinetobacter baumannii [5]) [µg/mL]	MIC (Staphylococcus aureus [6]) [µg/mL]	MIC (Staphylococcus aureus [7]) [µg/mL]	MIC (Enterococcus) [µg/mL]	MIC (Pseudomonas aeruginosa) [µg/mL]	MIC (Klebsiella pneumoniae) [µg/mL]	MIC (Acinetobacter baumannii [8]) [µg/mL]	CC50 at 24 h [9] [µM]	CC50 at 24 h [10] [µM]	CC50 at 24 h [11] [µM]	other results
C=C[C@]1(C)C[C@@H](OC(=O)COC(=O)/C=C/c2cccnc2)[C@]2(C)[C@H](C)CC[C@]3(CCC(=O)[C@H]32)[C@@H](C)[C@@H]1O	2 (≈ 3.92 µM)	2 (≈ 3.92 µM)	8 (≈ 15.7 µM)	16 (≈ 31.4 µM)	16 (≈ 31.4 µM)	32 (≈ 62.8 µM)	32 (≈ 62.8 µM)	64 (≈ 126 µM)	32 (≈ 62.8 µM)	16 (≈ 31.4 µM)	64 (≈ 126 µM)	> 128	80.6	28.6	63.4	–
C=C[C@]1(C)C[C@@H](OC(=O)COC(=O)/C=C/c2ccc([N+](=O)[O-])cc2)[C@]2(C)[C@H](C)CC[C@]3(CCC(=O)[C@H]32)[C@@H](C)[C@@H]1O	2 (≈ 3.61 µM)	8 (≈ 14.4 µM)	2 (≈ 3.61 µM)	4 (≈ 7.22 µM)	32 (≈ 57.8 µM)	64 (≈ 116 µM)	16 (≈ 28.9 µM)	16 (≈ 28.9 µM)	8 (≈ 14.4 µM)	64 (≈ 116 µM)	128 (≈ 231 µM)	128 (≈ 231 µM)	> 200	> 200	> 200	–
C=C[C@]1(C)C[C@@H](OC(=O)CSC(C)(C)CNC(=O)[C@H](N)C(C)C)[C@]2(C)[C@H](C)CC[C@]3(CCC(=O)[C@H]32)[C@@H](C)[C@@H]1O [VALNEMULIN]	64 (≈ 113 µM)	4 (≈ 7.08 µM)	2 (≈ 3.54 µM)	> 128	2 (≈ 3.54 µM)	2 (≈ 3.54 µM)	128 (≈ 227 µM)	128 (≈ 227 µM)	128 (≈ 227 µM)	64 (≈ 113 µM)	128 (≈ 227 µM)	64 (≈ 113 µM)	37.3	31.1	46.2	MIC [12]: 0.001 µg/mL (≈ 0.00177 µM); MIC [13]: 0.3 10^-4 ug/ml; MIC (Mesomycoplasma hyorhinis): 0.001 µg/mL (≈ 0.00177 µM); MIC [14]: 0.001 µg/mL (≈ 0.00177 µM); MIC (Mycoplasmopsis synoviae): 0.015 µg/mL (≈ 0.0266 µM); Survival [15]: 20%; Survival [16]: 40%; Survival [17]: 70%; ED50 (Staphylococcus aureus [18]): 14 mg/kg; Activity (Staphylococcus aureus [19]): Active; Activity (Staphylococcus aureus [20]): Active; Activity (Staphylococcus aureus [21]): Active; Activity (Staphylococcus aureus [22]): inactive; Activity (Staphylococcus aureus [23]): inactive; Activity (Staphylococcus aureus [24]): inactive
C=C[C@]1(C)C[C@@H](OC(=O)COC(=O)/C(C#N)=C/c2ccccc2)[C@]2(C)[C@H](C)CC[C@]3(CCC(=O)[C@H]32)[C@@H](C)[C@@H]1O	8 (≈ 15 µM)	4 (≈ 7.5 µM)	8 (≈ 15 µM)	32 (≈ 60 µM)	8 (≈ 15 µM)	4 (≈ 7.5 µM)	64 (≈ 120 µM)	> 128	8 (≈ 15 µM)	64 (≈ 120 µM)	32 (≈ 60 µM)	8 (≈ 15 µM)	> 200	> 200	> 200	–
C=C[C@]1(C)C[C@@H](OC(=O)COC(=O)/C=C/c2cccc(C#N)c2)[C@]2(C)[C@H](C)CC[C@]3(CCC(=O)[C@H]32)[C@@H](C)[C@@H]1O	2 (≈ 3.75 µM)	2 (≈ 3.75 µM)	8 (≈ 15 µM)	16 (≈ 30 µM)	64 (≈ 120 µM)	128 (≈ 240 µM)	32 (≈ 60 µM)	64 (≈ 120 µM)	16 (≈ 30 µM)	128 (≈ 240 µM)	128 (≈ 240 µM)	> 128	78.5	29.2	> 200	–
C=C[C@]1(C)C[C@@H](OC(=O)COC(=O)/C=C/c2ccccc2C(F)(F)F)[C@]2(C)[C@H](C)CC[C@]3(CCC(=O)[C@H]32)[C@@H](C)[C@@H]1O	64 (≈ 111 µM)	32 (≈ 55.5 µM)	64 (≈ 111 µM)	128 (≈ 222 µM)	> 128	> 128	–	–	–	–	–	–	–	–	–	–
C=C[C@]1(C)C[C@@H](OC(=O)COC(=O)/C=C/c2cccs2)[C@]2(C)[C@H](C)CC[C@]3(CCC(=O)[C@H]32)[C@@H](C)[C@@H]1O	16 (≈ 31.1 µM)	32 (≈ 62.2 µM)	16 (≈ 31.1 µM)	64 (≈ 124 µM)	32 (≈ 62.2 µM)	64 (≈ 124 µM)	–	–	–	–	–	–	–	–	–	–

From ChEMBL document CHEMBL5625206, “Design, synthesis, and evaluation of novel pleuromutilin aryl acrylate derivatives as promising broad-spectrum antibiotics especially for combatting multi-drug resistant gram-negative bacteria” (Eur J Med Chem, 2023)
